Data reported in the METLIN SMRT retention time set (Domingo-Almenara et al. 2019).

Assay: gradient 5% acetonitrile 3 min, to 50% in 2 min, to 85% in 15 min, held 3 min, 100 µL/min
Settings: column: Zorbax Extend-C18 2.1 x 50 mm; eluents: water / acetonitrile, 0.1% formic acid
Outline: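 The system's dead and dwell volumes were 40 μL and 900 μL, with a Zorbax Extend-C18 column (2.1 × 50 mm, 1.8 μm) run at 100 μL/min in water and acetonitrile containing 0.1% formic acid each. Pure standards were analyzed in mixtures of ~100 molecules by HPLC–quadrupole time-of-flight mass spectrometry in positive and negative ionization mode. Retention time was assigned from computationally picked, manually inspected adduct peaks.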

| RP-LC retention time [s] | SMILES |
| --- | --- |
| 1050 | O=S(=O)(c1cccc(-c2nnc(-c3ccc(Cl)cc3)o2)c1)N1CCCC1 |
| 1080 | O=C(c1ccco1)N1CCc2c([nH]c3ccccc23)C1c1ccc(F)cc1 (stereo not drawn) |
| 812 | CCOC(=O)C(C)NC(=O)Nc1cc(F)c2nc(N3CCOCC3)ccc2c1 (stereo not drawn) |
| 1250 | COc1ccc(NC(=O)c2c(O)c3cccnc3n(-c3ccc(F)cc3)c2=O)cc1 |
| 878 | Cc1cc2cc(CNC(=O)C(=O)c3c[nH]c4ccccc34)ccc2[nH]1 |
| 714 | COc1ccc(-c2cc(N3CCN(C(=O)c4cccs4)CC3)n[nH]2)cc1 |
| 726 | CSc1ccc(NC(=O)Nc2cccc(-c3ccc(N4CCOCC4)nn3)c2)cc1 |
| 878 | O=C(CCn1nnc2cc(-c3noc(Cc4ccc(Cl)cc4)n3)ccc21)N1CCOCC1 |
| 956 | Cc1cc(Cl)ccc1NC(=O)c1cnc(-c2ccccc2)nc1-c1ccncc1 |
| 643 | CCCN1CCN(C(=O)C2=NN(c3ccc(C)cc3)c3ncccc3S2(=O)=O)CC1 |
| 570 | Cc1cccc2c(C(N)=O)cc(N3CCCC3)nc12 |
| 700 | Cc1cc(=O)n(CC(=O)Nc2ccc(F)c(F)c2)c(N2CCCCC2)n1 |
| 661 | Cc1nc(-c2ccccc2Cl)sc1C(=O)N1CCN(c2ccccn2)CC1 |
| 720 | Cc1ccc(CNC(=O)Cc2nnc(-c3cnccn3)o2)cc1C |
| 581 | CCN(CC)CCn1c(NCc2ccc(Br)cc2)nc2ccccc21 |
| 878 | COC1C(=O)N(c2cccc(F)c2)C12CCN(C(=O)Nc1ccccc1)CC2 (stereo not drawn) |
| 825 | Cc1cccc(C2(O)C(=O)N(Cc3ccc(C#N)cc3)c3ccccc32)c1 (stereo not drawn) |
| 783 | CC(C)CNC(=O)CCc1nc2ccccc2n(CC(=O)NCc2ccc(F)cc2)c1=O |
| 886 | O=C(Cc1cccn1-c1ccc(Cl)cc1)NCc1ccc(N2CCOCC2)cc1 |
| 874 | Cc1ccc(N2CCC(NC(=O)NCc3ccc(F)cc3)C2=O)cc1C (stereo not drawn) |
| 1220 | Cc1ccc(Sc2nccnc2N2CCCC(C(=O)N3CCN(c4ccccc4)CC3)C2)cc1 (stereo not drawn) |
| 753 | O=C(NCc1cccs1)c1cc2n(n1)CCCC2 |
| 741 | COc1ccc(-c2nc3cnccn3c2Nc2cccc(C(=O)NCc3ccco3)c2)cc1 |
| 716 | CN1CCN(C(CNC(=O)C(=O)Nc2ccc(Cl)cc2)c2ccc3c(c2)OCO3)CC1 (stereo not drawn) |
| 1140 | Cc1ccc(Sc2nccnc2N2CCCC(C(=O)NC(C)c3ccccc3)C2)cc1 (stereo not drawn) |
| 762 | CN1C(=O)Cc2ccccc2C1C(=O)NCc1ccc(Cl)cc1 (stereo not drawn) |
| 749 | Cc1ccsc1C(=O)N1CCN(c2cc(-c3ccc(Cl)cc3)[nH]n2)CC1 |
| 680 | O=C(NCCCN1CCCC1)c1ccc(-c2noc(-c3ccccc3)n2)s1 |

More lines, now with the values behind:

| SMILES | RP-LC retention time [s] |
| --- | --- |
| CCOc1ccc(-c2noc(Cn3c(=O)n(CC4CCCO4)c(=O)c4ccccc43)n2)cc1OC (stereo not drawn) | 957 |
| CN(C)CC1(O)CCC2(CCN(C(=O)C3CCCC3)CC2)CC1 | 591 |
| O=C(CN1C(=O)CCC1=O)Nc1cccc(NC(=O)CN2C(=O)CCC2=O)c1 | 692 |
| Cc1cccc(NC(=O)CN2C(=O)CCc3cc(S(=O)(=O)N4CCCCC4C)ccc32)c1C (stereo not drawn) | 930 |
| CC(O)(CNC(=O)C(=O)NCCC1=CCCCC1)c1cccs1 (stereo not drawn) | 1120 |
| CC(C)(C)CC(=O)N1CCCC(CCc2nnc(C3CCOCC3)o2)C1 (stereo not drawn) | 758 |
| CCC(C)NC(=O)N1CCC(N2CCN(Cc3cccc(C)c3)C2=O)CC1 (stereo not drawn) | 784 |
| CC(CC(=O)Nc1ccccc1Cl)S(=O)(=O)c1ccc2c(c1)NC(=O)CCS2 (stereo not drawn) | 761 |
| Cc1cc(-c2nnc(-c3ccc(F)cc3)o2)c(C)n1CC(=O)Nc1ccc2c(c1)OCCO2 | 916 |
| CCCNC(=O)C1CCCN(c2nc3ncn(CC(=O)Nc4ccc(C(C)C)cc4)c(=O)c3s2)C1 (stereo not drawn) | 801 |
| Cc1ccc(NC(=O)N2CCc3cn(C)c4cccc(c34)C2)cc1C | 981 |
| Cc1cccc(NC(=O)N2CCCC2c2cc(C)on2)c1 (stereo not drawn) | 748 |
| COc1ccc(NC(=O)N2CCc3c(c(=O)c4cc(C)cc(C)c4n3C)C2)cc1OC | 628 |
| COc1ccc(CCNCC(O)Cn2c3c(c4ccccc42)CCN(C)C3=O)cc1OC (stereo not drawn) | 666 |
| Cc1[nH]nc(-c2ccc(S(=O)(=O)NC3CC3)o2)c1C | 723 |
| COc1ccc(Cl)cc1NC(=O)CSc1nnc2c3cc(-c4ccc(C)c(C)c4)nn3ccn12 | 1130 |
| O=C(c1cn(-c2cc(-c3nc(C4CC4)no3)ccn2)cn1)N1CCCCCC1 | 883 |
| O=C(CN1CCc2nc(NC(=O)C3CC3)sc2C1)Nc1ccccc1C(F)(F)F | 620 |
| O=C(c1cccs1)N1N=C(c2cccs2)CC1c1cc([N+](=O)[O-])ccc1O (stereo not drawn) | 876 |
| Cc1cc([N+](=O)[O-])ccc1NS(=O)(=O)c1cc(Cl)ccc1Cl | 1020 |

| SMILES | RP-LC retention time [s] |
| --- | --- |
| Cc1ccc(C)c(-c2csc(NC(=O)c3ccc(C)o3)n2)c1 | 1100 |
| CCOCC(=O)N1CCC(c2nc(CNC(=O)C3CCC3)cs2)CC1 | 623 |
| Cc1ccc(C2=NC3(CCN(C(C)C)CC3)NC(c3ccccc3O)C2)cc1 (stereo not drawn) | 612 |
| COc1ccc(C2(C(=O)N3[C@H]4CC[C@@H]3c3cnc(C)nc3C4)CCCCC2)cc1 | 812 |
| Cc1cc(C(=O)N2c3ccccc3CC2c2nnc(C(C)C)o2)nn1C (stereo not drawn) | 829 |
| COc1ccc(NC(=O)C2CCN(S(=O)(=O)c3cc(-c4noc(C)n4)cs3)CC2)cc1 | 871 |
| Cc1nc2cc3c(cc2n1CC(=O)Nc1cccc(C(F)(F)F)c1)OCCO3 | 712 |
| O=C(NCC1(c2cccs2)CC1)c1cnccn1 | 736 |
| CC1=C(c2cccc(Cl)c2)S(=O)(=O)N=C1N1CCCN(C(=O)C2CC2)CC1 | 763 |
| CN1Cc2ccccc2-n2ccnc2C12CCN(C(=O)Cc1cccc(F)c1)CC2 | 666 |
| O=C(Nc1ccc2c(c1)OCO2)C1CCN(C(=O)C2Sc3ccccc3NC2=O)CC1 (stereo not drawn) | 736 |
| CC(C)CNC(=O)CN1c2ccc(F)cc2-c2ccccc2S1(=O)=O | 920 |
| O=C(NCCC1=CCCCC1)C(=O)NCC1CCN(Cc2ccccc2)CC1 | 593 |
| O=C1[C@H]2CN(Cc3cccc(F)c3F)C[C@H]2C(=O)N1Cc1ccc2c(c1)OCO2 | 919 |
| Cc1noc(C)c1S(=O)(=O)N1CCC(c2noc(COCC3CC3)n2)CC1 | 931 |
| CCOC(=O)c1sc(NC(=O)CSc2nc3ccccc3[nH]2)nc1C | 810 |
| COc1ccc(NC(=O)C2CCCN(c3ncnc4c3nc3n4CCCCC3)C2)cc1 (stereo not drawn) | 753 |
| Cc1c(Cl)cccc1Nc1ccccc1C(=O)O | 1060 |
| COc1ccc(NC(=O)C2CCCN2S(=O)(=O)c2cc3c(cc2C)NC(=O)C(C)O3)cc1Cl (stereo not drawn) | 824 |
| CC1CCN(CCNC(=O)c2nnc(-c3ccc(S(=O)(=O)N4CCCCC4)cc3)o2)CC1 | 663 |

| SMILES | RP-LC retention time [s] |
| --- | --- |
| CCN1C(=O)COc2ccc(-c3csc(NC(=O)CCc4ccccc4)n3)cc21 | 664 |
| Cc1ccc(N2CC(c3nc(-c4ccncc4)no3)CC2=O)cc1Cl (stereo not drawn) | 845 |
| COc1c(C(=O)N2CCN(CC(C)C)CC2)sc2cc(Cl)ccc12 | 697 |
| COc1ccc2c(c1)C1(CCN(C(=O)c3cccc(F)c3)C1)C(=O)N2 (stereo not drawn) | 717 |
| CC(C)CN1CCCn2ccnc2C1C1CCN(C(=O)C(C)C)CC1 (stereo not drawn) | 587 |
| CN(Cc1ccccc1)C(=O)CCSC1CCc2ccccc2NC1=O (stereo not drawn) | 798 |
| O=S(=O)(c1ccc(F)cc1F)N1CCC(CN2CCCCCC2)CC1 | 648 |
| CCCNC(=O)Cn1cc(C(=O)Nc2cc(C)cc(C)c2)c(=O)c2ccc(C)nc21 | 982 |
| CC(C)c1cnn2c(NCc3ccccc3)cc(NCCCCCCN)nc12 | 653 |
| CCc1nnc(-c2ccc3ccn(CC(=O)Nc4cc(OC)c(OC)c(OC)c4)c3c2)o1 | 777 |
| O=C(Nc1ccc(-c2nnc3n2CCCC3)cc1)C1CCCC1 | 648 |
| Cc1nn(-c2ccc(F)cc2)c(C)c1S(=O)(=O)N1CCC(C(=O)NC2CC2)CC1 | 764 |
| O=S(=O)(c1ccc(-c2noc(-c3cccc(Br)c3)n2)cc1)N1CCCC1 | 1290 |
| COc1ccc(C2(C(=O)N3CCN(C(=O)c4cc(-c5cccnc5)n[nH]4)CC3)CC2)cc1 | 621 |
| CCCCC(=O)Nc1nc(-c2ccc3c(c2)N(CCC)C(=O)CO3)cs1 | 1010 |
| O=C(CCC(=O)N1c2ccccc2NC2=C(C(=O)CCC2)C1c1ccco1)Nc1ccccc1 (stereo not drawn) | 744 |
| CCOc1cc(-c2nc(C3CC(=O)N(c4ccc(OC)c(OC)c4)C3)no2)cc(OCC)c1OCC (stereo not drawn) | 1060 |
| CCC(CC)C(=O)N1CCc2c(c(-c3nnc(-c4ccccc4Cl)o3)nn2C)C1 | 899 |
| Cc1ccc(S(=O)(=O)c2cnc(N3CCN(c4ccccn4)CC3)nc2N)cc1 | 1160 |
| CCn1cc(C(=O)NCc2ccccc2C)c(S(=O)(=O)N2CCSCC2)n1 | 1120 |
